According to US20240350481A1, “USE OF N-MYRISTOYL TRANSFERASE (NMT) INHIBITORS IN THE TREATMENT OF CANCER, AUTOIMMUNE DISORDERS, AND INFLAMMATORY DISORDERS” (PACYLEX PHARMACEUTICALS INC., priority 2020, published 2024):
Where two headings read alike, the source gives them in different places.

Key:
[1] = dogs; cited from earlier work
DOHH2 tumors = assay: DOHH2 xenograft, tumor growth; format: in vivo, mouse
Experimental: DOHH2 xenograft study at Charles River's facility: […] On Day 1 of the study, animals were given a rehydration solution ad libitum in an effort to reduce dehydration during the dosing phase of the study. […] The dose volume was 10 mL/kg.

[2] = Experimental: Data collected were the same as in the Charles River xenograft study—clinical signs, body weight, tumor volume, blood samples from 3 mice/group for hematology and clinical chemistry (ALT, AST, BUN, creatinine, CK), and tissue samples collected and fixed from the same 3 mice. Liver, kidneys, and small intestine also were weighed.
(§1) The dose volume was 10 mL/kg.

[3] = Toxicology in DLBCL3 patient derived xenograft mice; format: in vivo, mouse; conditions: for Absolute Basophil cells: normal [0-0.2]; for Absolute Monocyte cells: normal [0-0.4]; for Basophil %: normal [0-2]; for Eosinophil %: normal [0-3.9]; for Monocyte %: normal [0-7.5]; for Absolute Neutrophil cells: normal [0.1- 2.4]; for WBC: normal [1.8-10.7]; for MPV: normal [5-20]; for RDW %: normal [12.4-27]
Experimental: as §1

[4] = tested on: peripheral blood mononuclear cells (PBMCs); assay: PBMC viability assay; format: cell-based, human; conditions: 96 hr
Experimental: 2 healthy human research volunteers were recruited for PBMC and lymphocytes isolation from a 20 ml blood collection (patient #1: no diagnosis, no treatment; patient #2: no diagnosis, no treatment). Study protocol was approved by the Health Research Ethics Board of Alberta Cancer Committee (Study title: Evaluations of Fatty AcylTransferases (FATs) in fresh blood and blood forming cells; HREBA.CC-17-0624).
Mononuclear cells were isolated from peripheral blood by density gradient centrifugation using Ficoll-Paque (GE Healthcare, PA, USA). Lymphocytes were isolated from whole blood samples using EasySep™ lymphocyte isolation kit (Stemcell Technologies, Vancouver, BC, Canada) as per manufacturer's instructions. PBMC and lymphocytes were cultured in RPMI medium with 10% FBS, 100 U/ml penicillin, 0.1 mg/ml streptomycin. Cells were plated at a concentration of 2×10^6 cells/ml.

[5] = T cell viability by flow cytometry; format: cell-based; conditions: human, purified T cells from healthy donors; for viability at 4 days, 20 nM: Drug 20 nM; for viability at 4 days, 100 nM: Drug 100 nM; for viability at 4 days, 500 nM: Drug 500 nM
Experimental: Human peripheral blood mononuclear cells (PBMC) and purified T cells from healthy donors were purchased from […] Technologies (CA). Cells (7.5×10^6/ml) were cultured in the RPMI supplementing with 10% heat-inactivated fetal bovine serum (vWR), 1% penicillin/streptomycin (SigmaMillipore), 1% sodium pyruvate, and 1% non-essential amino acids (Gibco) in 24 well plates in the presence of 100 IU/ml interleukin 2 ([…] Technologies or HIV reagent program (managed by ATCC).
Then, cells were induced with T cell activator ([…]) in the presence of the drugs for 2 more days. After 4 days, the viability of treated T cells was analyzed using Flow cytometry. The supernatants for both PBMC and T cells were collected for further analysis.

[6] = Mouse IV; cited from earlier work
[7] = tested on: cell lines originating from solid tumors; assay: ChemPartner cell line screen, CellTiter Blue; format: cell-based; conditions: 72 h; 3 days of treatment; 10 μM is the highest dose tested; read-out: median IC50
Experimental: (§2) 131 cell lines were seeded in 96-well plate, black wall, tissue culture treated (from Corning, Cat.3904) and cultured following ATCC formulation. Cell viability after 72 hrs and 144 hrs was measured using Cell Titer Blue Viability Assay (from Promega, Cat. G8081, Lot. No. 0000190181) and fluorescence at 560/590 nm was recorded with Enspire (PerkinElmer). EC50 was calculated using XLfit software (5.5).

[8] = tested on: hematological cancer cell lines; assay: ChemPartner cell line screen, CellTiter Blue; format: cell-based; conditions: 72 h; 3 days of treatment; read-out: median IC50
Experimental: as §2

[9] = rats; cited from earlier work
BL2 xenografts = assay: BL2 xenograft, tumor growth; format: in vivo, mouse
Excerpt: BL2 xenograft study at Jackson Laboratory: One hundred five (105) 6 week old female NOD.CB17-Prkdc scid/J (NOD scid, Stock #001303) mice were transferred to the in vivo research laboratory in Sacramento, CA. The mice were ear notched for identification and housed in individually and positively ventilated polysulfone cages with HEPA filtered air at a density of 5 mice per cage. Initially cages were changed every two weeks. The animal room was lighted entirely with artificial fluorescent lighting, with a controlled 12 hour light/dark cycle (6 am to 6 pm light). The normal temperature and relative humidity ranges in the animal rooms were 20-26° C. and 30-70%, respectively. The animal rooms were set to have up to 15 air exchanges per hour. Filtered tap water, acidified to a pH of 2.5 to 3.0, and standard lab chow were provided ad libitum.
as §1
TGI (%)=(Vcontrol−Vtreated)/(Vcontrol−Vnitial)*100.

[10] = DLBCL patient derived xenograft, PCLX-001 20 mg/kg/day
[11] = DLBCL patient derived xenograft, PCLX-001 50 mg/kg/day

## Cc1c(N[S+](=O)([O-])c2c(Cl)cc(-c3ccnc(N4CCNCC4)c3)cc2Cl)c(CC(C)C)nn1C [PCLX-001]
[1]
  toxicity at high dose levels: hematopoietic toxicity
DOHH2 tumors; 50 mg/kg daily with 5-day interruption, by day 16
  mean tumor growth inhibition (TGI): 95%
DOHH2 tumors; 50 mg/kg daily, by day 7
  reduction of tumor size: up to 70%
DOHH2 tumors; 50 mg/kg daily, day 7
  average tumor size: 44.0±8.1 mm^3
[2]; 20, 50, 60 mg/kg/day
  clinical pathology and anatomic pathology: no clinical pathology or anatomic pathology findings
[2]; 50 or 60 mg/kg/day
  dehydration and body weight: Dehydration and weight loss
[2]; most mice in groups given PCLX-001 (20, 50, 60 mg/kg/day)
  clinical signs: Signs of ill health
[3]; 50 mg/kg daily
  loss of body weight: ~15%
[3]; 20 and 50 mg/kg
  clinical signs, clinical pathology, anatomic pathology: no clinical signs of toxicity, effects on clinical pathology parameters, or anatomic pathology findings
[3]; [10]
  Hematocrit %: 47.13 ± 1.1%
  MCV: 53.5 ± 0.36
  Neutrophil %: 57.17 ± 9.40%
  RBC: 8.81 ± 0.15 M/ul
  Absolute Basophil cells: 0 ± 0
  Absolute Monocyte cells: 0.23 ± 0.06
  Basophil %: 0.1 ± 0.04%
  Eosinophil %: 0.26 ± 0.08%
  Monocyte %: 15.48 ± 4.35%
  Absolute Neutrophil cells: 0.86 ± 0.22
  WBC: 1.49 ± 0.24 K/ul
  MPV: 4.93
  RDW %: 18.07 ± 0.03%
[3]; [11]
  Hematocrit %: 42.47 ± 4.04%
  MCV: 50.83 ± 0.35
  Neutrophil %: 58.04%
  RBC: 8.36 ± 0.83 M/ul
  Absolute Basophil cells: 0 ± 0
  Absolute Monocyte cells: 0.37 ± 0.07
  Basophil %: 0.04 ± 0.04%
  Eosinophil %: 0.32 ± 0.1%
  Monocyte %: 17.24%
  Absolute Neutrophil cells: 1.28 ± 0.34
  WBC: 2.17 ± 0.5 K/ul
  MPV: 5.27 ± 0.18
  RDW %: 20.37 ± 0.37%
[3]; DLBCL patient derived xenograft, PCLX-001 50 mg/kg/day, normal [0.9-9.3]
  Absolute Lymphocyte cells: 0.52 ± ? .12
[3]; DLBCL patient derived xenograft, PCLX-001 50 mg/kg/day, normal [14.1-19.3]
  MCH: 12.5 pg
[3]; DLBCL patient derived xenograft, PCLX-001 50 mg/kg/day, normal [30.2-34.2]
  MCHC: 24.53 ± 0.24 g/dL
[3]; DLBCL patient derived xenograft, PCLX-001 50 mg/kg/day, normal [55.8-91.6]
  Lymphocyte %: 24.36 ± 2.93%
[4]; 0.1 μM
  decrease in PBMC survival: ~50%
[4]
  concentration endured by the surviving PBMCs: ≤ 10 µM
[5]; T cells viability (#1)
  viability at 4 days, 20 nM: 9%
  viability at 4 days, 100 nM: 8%
  viability at 4 days, 500 nM: 10%
[5]; T cells viability (#2)
  viability at 4 days, 20 nM: 66%
  viability at 4 days, 100 nM: 60%
  viability at 4 days, 500 nM: 62%
[5]; T cells viability (#3)
  viability at 4 days, 20 nM: 76%
  viability at 4 days, 100 nM: 71%
  viability at 4 days, 500 nM: 68%
[6]
  Clearance: 0.18 L/h/kg
[7]
  IC50: ≥ 10 µM
[8]
  IC50: 0.166 µM
[9]
  toxicity at high dose levels: hematopoietic toxicity
BL2 xenografts; 20 mg/kg daily, by day 9
  tumor regression: 42.5%
BL2 xenografts; 56 mg/kg daily, 13 days
  tumor regression: 100%
BL2 xenografts; 60 mg/kg daily, 13 days
  tumor regression: 100%
